Laboratory results from PMC6540222, “Small Molecule Inhibitors of KDM5 Histone Demethylases Increase the Radiosensitivity of Breast Cancer Cells Overexpressing JARID1B” (Molecules, 2019).

Legend:
[1] = test system: MCF-7 cells; test: Flow-cytometry analysis of cell cycle distribution; format: cell-based, human; conditions: for cells in G2/M / subG1 cells (possible apoptotic fraction): MCF-7, 30 μM
Protocol: Flow-cytometry analysis of DNA content was carried out using an EPICS xl flow-cytometer (Beckman-Coulter, Brea, CA, USA). DMSO and inhibitor treated MCF-7 cells were trypsinized, pelleted, washed with PBS and finally resuspended in PBS containing 0.1% Triton-X-100 (#A1388.1000, AppliChem, Darmstadt, Germany) and 40 μg/mL propidium iodide (#P-4170, Sigma). After 20 min incubation at 37 °C the samples were analyzed. 10,000 events were acquired for each sample. Acquired data were analyzed using the WinMDI software by Joe Trotter, available at http://facs.scripps.edu.

[2] = biological target: KDM5D (Homo sapiens, UniProt Q9BY66); test: Surface Plasmon Resonance (SPR), immobilized KDM5D; format: binding; conditions: KDM5D immobilized on COOH5 sensorchip, buffer HSP-1%D, analyte 6.25-100 μM
Protocol: Surface Plasmon Resonance (SPR) experiments were carried out using a SensiQ Pioneer system (ICx Nomadics, Stillwater, OK, USA). Immobilization of ligand (KDM5D) was carried out essentially as in Ilari et al.. The sensor chip (COOH5) was activated chemically by a 100 µL injection of a 1:1 mixture of N-ethyl-N′-(3-([…])carbodiimide (200 mM) and N-hydroxysuccinimide (50 mM) at a flow rate of 5 µL/min. KDM5D was immobilized on activated sensor chips via amine coupling. The immobilization was carried out in 20 mM sodium acetate at pH 4.5; the remaining unreacted groups were blocked by injecting 1 M ethanolamine hydrochloride (100 µL). The amount of immobilized KDM5D was detected by mass concentration-dependent changes in the refractive index on the sensor chip surface and corresponded to about 11,000 resonance units (RU); an empty flow cell was used as a reference. Analytes, i.e., inhibitors RS3152, RS3183, RS3195, RS4995 and RS5033 were dissolved in DMSO at a concentration of 10 mM and diluted in HSP buffer (10 mM Hepes pH 7.4, 150 mM NaCl + 0.005% surfactant P20) to yield 100 μM inhibitor concentration in HSP + 1% DMSO (HSP-1%D). The analytes were automatically diluted in HSP-1%D and injected on the sensorchip for 120 s at a constant flow (30 µL/min); analyte concentrations were: (1) 6.25 μM; (2) 12.5 μM; (3) 25 μM; (4) 50 μM; (5) 100 μM. The increase in RU relative to baseline indicates complex formation; the plateau region represents the steady-state phase of the interaction, whereas the decrease in RU after 120 s represents dissociation of analytes from immobilized KDM5 after injection of buffer HSP-1%D. The sensorgrams were analysed using the SensiQ Qdat 4.0 program and using simple Scatchard plots.

[3] = test system: MCF-7 cells; test: CCK-8 viability assay after X-ray irradiation; format: cell-based, human; conditions: MCF-7 irradiated with 3 Gy, all concentrations tested, compared to DMSO control, CCK-8 48 h post irradiation
Protocol: The cytoxicity assay was performed with Cell Counting Kit-8 (#96992, Sigma-Aldrich) according to the manufacturer’s instructions. 100 µL of MCF-7 T47D or MDA-MB231 cell suspension (5000 cells/well) was dispensed in a 96-well plate. After 24 h, inhibitor or DMSO was added in growth medium and then cells were irradiated. 48 h post irradiation, 10 μL of CCK-8 solution was added to each well of the plate and incubated again for 1 h. Incubate the plate for 1–4 h in the incubator. The absorbance at 450 nm was read using a VICTOR2 1420 reader (Perkin Elmer Wallac, Waltham, MA, USA). The absorbance at 450 nm of each sample, which is proportional to the number of viable cells, was first normalized on the same value of absorbance of blank (a well with only growth medium). The absorbance of each dose of radiation (sham, 0.3, 1 and 3 Gy) was normalized to the corresponding DMSO control and then, for each concentration of inhibitors, these values were normalized to the corresponding sham control.

[4] = test system: H3K4me3 levels in MCF-7 cells; test: Western blotting of H3K4me3 levels in bulk chromatin; format: cell-based, human; conditions: MCF-7 bulk chromatin, 1 μM, 10 μM and 30 μM, 24 h, vs DMSO
Protocol: Histone isolation was performed according to acid extraction of histones protocol of Shechter and colleagues. Histone concentration was determined by running 5 μL of samples and known concentrations of commercially available purified calf thymus histones (from Sigma Aldrich Cat. #000000010223565001) on a SDS-PAGE gel. The gel is stained with Coomassie blue G 250 (BIO-RAD Cat. #161-0786) for 1 hour at room temperature and then destained in distilled water. The gel image is acquired with ChemiDoc XRS+ Imaging System (Bio-Rad, Hercules, CA, USA) and the volumes of bands of the samples are compared to standard concentrations of calf thymus histone.
Proteins were resolved on a 12% (histones) or 5% (JARID1B) denaturing polyacrylamide gel, using either 4 μg of histone preparation or 40 μg of cell lysate. After electrophoresis, proteins were transferred on a nitrocellulose membrane (Protran™ […] NC, # 10600002, GE Healthcare (Amersham™), Chicago, IL, USA) via wet transfer method using a Bio-Rad tank. Transfer efficiency was verified via ponceau staining (#P7767, Sigma-Aldrich). Filters were blocked with either milk (#70166, Sigma-Aldrich) or bovine serum albumin (#A3069, Sigma-Aldrich) and then hybridized over night at 4 °C in gentle rotation with the following antibodies: rabbit anti-H3K4me3 (1:1000, #39915, Active Motif, RRID:AB_2687512); rabbit-anti-H3K27me3 (1:1000, #9733, Cell Signaling Technology, RRID:AB_2616029); rabbit-anti- H3K9pan-methylated (1:1000, #4473, RRID:AB_10544693); rabbit-anti-H3 ([…], Cat#1791, ABCAM, RRID:AB_302613); rabbit anti-H2AX (1:1000, Cat#7631, Cell Signaling Technology, RRID:AB_10860771), rabbit anti-Phospho-H2AX (1:1000, Cat#9718, Cell Signaling Technology, RRID:AB_2118009), rabbit anti-JARID1B (1:50, Cell Signaling Technology, Cat#3273 RRID: AB_1264191). Goat-anti-Rabbit Horseradish Peroxidase conjugated (1:10,000, #31460, Thermo Fisher Scientific, Waltham, MA, USA RRID:AB_228341) was used as secondary antibody for 1 hour hybridization at room temperature. Blots were scanned and analyzed with a ChemiDoc XRS+ Imaging System (Bio-Rad). The volumes of each band of protein was acquired using Bio-Rad’s ImageLab software by means of volume tools using global quantification. The signal for each protein was normalized to the housekeeping protein and ratios with average control values were determined. For histones as loading control was used either total histone H3 detected by a specific antibody or histone H1 levels by staining the upper part of the gel properly cut before protein transfer on nitrocellulose membrane.

KDM5D, sequence (Q9BY66 whole entry): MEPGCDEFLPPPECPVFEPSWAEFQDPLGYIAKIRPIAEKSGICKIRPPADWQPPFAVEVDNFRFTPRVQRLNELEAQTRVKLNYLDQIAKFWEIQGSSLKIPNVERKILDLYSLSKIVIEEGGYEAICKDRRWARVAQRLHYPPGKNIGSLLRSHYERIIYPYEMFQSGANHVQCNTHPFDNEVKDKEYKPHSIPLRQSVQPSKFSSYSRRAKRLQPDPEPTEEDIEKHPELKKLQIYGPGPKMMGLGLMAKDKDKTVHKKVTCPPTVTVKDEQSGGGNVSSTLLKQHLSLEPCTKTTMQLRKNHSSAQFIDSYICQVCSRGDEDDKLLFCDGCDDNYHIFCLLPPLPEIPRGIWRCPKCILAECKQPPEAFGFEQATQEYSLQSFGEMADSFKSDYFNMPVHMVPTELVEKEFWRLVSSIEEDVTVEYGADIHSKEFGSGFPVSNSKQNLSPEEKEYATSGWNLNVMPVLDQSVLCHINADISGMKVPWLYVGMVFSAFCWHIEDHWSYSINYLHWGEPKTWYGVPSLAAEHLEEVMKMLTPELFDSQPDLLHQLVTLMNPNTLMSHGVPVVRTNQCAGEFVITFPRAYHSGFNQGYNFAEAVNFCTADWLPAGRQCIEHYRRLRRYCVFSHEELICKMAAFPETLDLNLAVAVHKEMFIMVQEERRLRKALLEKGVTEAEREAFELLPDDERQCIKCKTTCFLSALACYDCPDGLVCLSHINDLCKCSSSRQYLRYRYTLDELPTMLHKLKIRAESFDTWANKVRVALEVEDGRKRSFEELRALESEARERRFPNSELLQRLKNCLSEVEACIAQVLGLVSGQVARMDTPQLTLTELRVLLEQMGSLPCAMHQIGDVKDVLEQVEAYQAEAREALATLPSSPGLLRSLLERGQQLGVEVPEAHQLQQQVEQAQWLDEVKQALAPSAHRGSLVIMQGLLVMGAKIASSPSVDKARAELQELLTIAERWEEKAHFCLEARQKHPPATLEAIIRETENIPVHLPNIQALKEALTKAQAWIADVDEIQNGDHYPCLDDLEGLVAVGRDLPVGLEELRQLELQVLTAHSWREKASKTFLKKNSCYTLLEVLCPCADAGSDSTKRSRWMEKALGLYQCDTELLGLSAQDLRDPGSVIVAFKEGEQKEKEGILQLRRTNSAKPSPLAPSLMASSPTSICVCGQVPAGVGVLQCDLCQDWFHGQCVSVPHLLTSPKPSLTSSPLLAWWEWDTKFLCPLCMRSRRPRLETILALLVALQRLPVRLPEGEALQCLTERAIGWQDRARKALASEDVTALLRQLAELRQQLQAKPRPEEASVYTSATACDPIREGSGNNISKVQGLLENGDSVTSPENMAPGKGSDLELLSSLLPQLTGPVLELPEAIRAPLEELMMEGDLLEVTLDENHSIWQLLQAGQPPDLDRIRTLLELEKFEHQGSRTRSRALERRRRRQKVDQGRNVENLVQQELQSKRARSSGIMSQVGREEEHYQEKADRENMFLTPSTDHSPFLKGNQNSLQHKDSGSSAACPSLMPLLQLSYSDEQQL

Kd [2]	SMILES	cell cycle dynamics ([1]; MCF-7, 1 μM)	cell cycle dynamics ([1]; MCF-7, 10 μM)	cells in G2/M [1]	subG1 cells (possible apoptotic fraction) [1]	reduction of viable cells [3]	H3K4me3 levels [4]	perturbation of cell cycle dynamics ([1]; MCF-7, 10 μM and 30 μM)	H3K4me3 levels ([4]; listed as RS 5033)
38 ± 2 µM	CCOC(=O)c1cccn1C(=O)c1cccc(NS(=O)(=O)c2ccc(OC)cc2)c1 [RS3195]	No cell cycle perturbation	slight but significant increase of G0/G1 population	clear increase of cells in G2/M	consistent increase of subG1 cells	more limited effect	slight increase	–	–
32 ± 2 µM	CCOC(=O)c1ccccc1C(=O)c1cccc(NS(=O)(=O)c2ccc(OC)cc2)c1 [RS5033]	–	–	not observed	not observed	20–35%	more remarkable and significant increase of H3K4me3	no significant perturbation	strong and significant increase
